One molecule from patent US11465984B2, “Compound having ERK kinase inhibitory activity and use thereof” (SHANGHAI HAIHE PHARMACEUTICAL CO., LTD., priority 2017, dated 2022) can be followed below.

Where two headings read alike, the source gives them in different places.

Series [1] deals with ERK2 kinase (Homo sapiens (Human), UniProt P28482). In words: In vitro enzyme activity assay, ERK2 kinase (Z'-LYTE). The format is biochemical. Here is the method:
Half inhibitory activity of the compounds of the invention against ERK2 kinase (IC50 value) was determined in this Example.
• Enzyme: extracellular signal-regulated kinase ERK2 kinase (PV3595, Invitrogen) • Kit: Z′-LYTE® Protein Kinase Assay Kit-Ser/Thr 3 Peptide (PV3176, Invitrogen) • Kit components: The substrate Z′-LYTE™ Ser/Thr 3 Peptide (PV3200) • The phosphorylation substrate Z′-LYTE™ Ser/Thr 3 Phospho-peptide (PV3215) • 5× kinase buffer: 250 mM HEPES (pH 7.5), 50 mM MgCl2, • 5 mM EGTA, 0.05% BRIJ-35 (PV3189, Invitrogen) • ATP (PV3227, Invitrogen) • Development Reagent A (PV3295, Invitrogen) • Development Buffer (P3127, Invitrogen) • Stop Reagent (P3094, Invitrogen) • Microplate reader: The multil-mode microplate reader PerkinElmer EnVision® • Microplate: black shallow 384-well microplate (6008269, PerkinElmer) (2). Assay Protocol:
The substrate Z′-LYTE™ Ser/Thr 3 Peptide, the phosphorylation substrate Z′-LYTE™ Ser/Thr 3 Phospho-peptide, 1× kinase buffer (5× kinase buffer was diluted with ultra pure water by five times), ATP, Development Reagent A, Development Buffer, Stop Reagent were balanced to room temperature for use. The screening concentrations for detecting the effect of the compounds of the invention on the ERK kinase activity were seven 3-fold serial dilutions starting from 1 μM (from 0.2 μM for the positive drug control) using 4% DMSO as co-solvent. 5 μL enzyme system (50 mM HEPES pH 7.5, 1 mM EGTA, 10 mM MgCl2, 0.01% Brij-35, 4 uM substrate, 0.8 ng/μL enzyme), 2.5 μL Compound, 2.5 μL 400 μM ATP were added into 384 well microplate, followed by incubation at room temperature for 60 min in the dark. After the reaction was completed, 5 μl the developing agent (Development Reagent A) diluted with the developing buffer (Development Buffer) was added to all reaction wells, followed by incubation at the room temperature for 60 min in the dark. 5 μL the terminating agent was added to each well to terminate the reaction. The fluorescence was determined using the multil-mode microplate reader PerkinElmer EnVision® (excitation wavelength 400 nm, emission wavelength 460 nm and 528 nm).
The inhibition rate of each well was calculated from 100% phosphorylation substrate well and 0% phosphorylation substrate well using the data analysis method below: phosphorylation %=1−{(emission rate×F100%−C100%)/[C0%−C100%+emission rate×(F100%−F0%)]}×100 inhibition %=100×(1−phosphorylation % of the test compound well/phosphorylation % of the 0% inhibition control) • wherein: • emission rate=fluorescence emission of the sample at 445 nm/fluorescence emission of the sample at 520 nm • F100%=the average fluorescence emission of the control well of 100% phosphorylation substrate at 520 nm • F0%=the average fluorescence emission of the control well of 0% phosphorylation substrate at 520 nm • C100%=the average fluorescence emission of the control well of 100% phosphorylation substrate at 445 nm • C0%=the average fluorescence emission of the control well of 0% phosphorylation substrate at 445 nm
Tests were carried out in duplicate. IC50 values were calculated from the inhibition of the kinase by the test compounds at a range of different concentrations.

Series [2] in a line: Pharmacokinetic study, single IV and PO administration to ICR mice. The format is in vivo. The protocol:
The pharmacokinetic parameters of Compound P9 of the invention and the representative compounds of WO2017/114510A1 in mice were determined in this Example.
(1) In Vivo Pharmacokinetics Protocol for Single Intravenous (IV) and Oral (PO) Administration to ICR Mice
The concentration during formulation of test substances was calculated on the basis of pure free base.
The test substance was accurately weighed, and added with the excipients (5% DMSO+5% Solutol+90% saline) in the specified amounts. After complete dissolution, the dosing solution for intravenous injection was obtained at the concentration of 0.2 mg/mL.
The test compound was accurately weighed, and added with the excipients (0.4% methylcellulose (viscosity: 400 cps)) in the specified amount. After sufficiently mixing, the dosing solution for oral administration was obtained at the concentration of 1 mg/mL.
Forty male SPF grade ICR mice were purchased from Shanghai Xipuer-Bikai Laboratory Animal Co., Ltd., and 30 normal healthy ICR mice of them passed the physical examination and were used in this study. Animal weight: 20.12-25.56 g.
Blood was collected through the orbit or through cardiac puncture after carbon dioxide (CO2) euthanasia. About 0.20 milliliter (mL) of blood was collected for each sample with heparin sodium as anticoagulant agent. The samples were placed on ice after collection. […]
The biological samples of the test substances were analyzed by LC-MS/MS. […]
The pharmacokinetic parameters were calculated from the blood concentration data of the drug, using WinNonlin 7.0 to provide the parameters such as AUC0-t, AUC0-∞, MRT0-∞, Cmax, Tmax, and T1/2, and the average and standard deviation thereof.
For those samples with concentrations below the lower limit of quantitation, when calculating the pharmacokinetic parameters, samples collected before Cmax should be calculated as zero, and samples collected at the points after Cmax should be calculated as being below the limit of qualitification (BLQ).

ERK2 kinase, sequence (P28482 whole entry): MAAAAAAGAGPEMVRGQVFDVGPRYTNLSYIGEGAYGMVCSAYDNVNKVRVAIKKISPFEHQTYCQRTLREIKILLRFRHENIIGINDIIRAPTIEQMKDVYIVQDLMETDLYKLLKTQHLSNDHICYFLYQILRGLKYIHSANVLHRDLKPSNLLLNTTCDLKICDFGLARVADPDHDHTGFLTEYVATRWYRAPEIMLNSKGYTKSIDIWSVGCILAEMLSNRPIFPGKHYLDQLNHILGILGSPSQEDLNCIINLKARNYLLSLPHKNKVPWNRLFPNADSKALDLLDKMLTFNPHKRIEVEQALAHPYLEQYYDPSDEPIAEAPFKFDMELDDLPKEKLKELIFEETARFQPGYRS

`Cn1nccc1Nc1cc(-c2cc(F)c3c(c2)CCN3C(=O)Cc2cccnc2Cl)ccn1` [Example P9, 2-(2-chloropyridin-3-yl)-1-(7-fluoro-5-(2-((1-methyl-1H-pyrazol-5-yl)amino)pyridin-4-yl)indolin-1-yl)ethan-1-one]: in series [1] (class symbols, read-out: ERK2 IC50), the IC50 is at most 10 nM. Also, in series [1] (read-out: IC50 against ERK2 kinase), the half-inhibitory concentration (IC50) is 3.3 nM. In addition, in series [2], the CLz entry is recorded as “CLz/(L/hr/kg): 0.36”. In series [2] (po), the F result is listed as “F/(%, po): 60.55” and the nAUC0-t result is on record as “nAUC0-t/(ng · h/ mL, po): 1696.3”.

One may read the IC50 as the midpoint of a concentration-inhibition curve.
